Results published in ChEMBL document CHEMBL3885881, “DrugMatrix”.

Species: Rattus norvegicus
Experiment: DrugMatrix - Regimen: Daily Repeat
Assay type: toxicity, organism-based, Sprague-Dawley
Design: regimen Daily Repeat, gender Male, age 6-8 weeks
Conditions: in vivo, po, route oral GAVAGE, […]; for ABSOLUTE BASOPHIL / ABSOLUTE EOSINOPHIL / ABSOLUTE LYMPHOCYTE / ABSOLUTE MONOCYTE / ABSOLUTE SEGMENTED NEUTROPHIL / BASOPHIL / EOSINOPHIL / ERYTHROCYTE COUNT / HEMATOCRIT / HEMOGLOBIN / LEUKOCYTE COUNT / LYMPHOCYTE / MEAN CORPUSCULAR HEMOGLOBIN / MEAN CORPUSCULAR HEMOGLOBIN CONCENTRATION / MEAN CORPUSCULAR VOLUME / MONOCYTE / NEUTROPHIL / NUCLEATED RED BLOOD CELLS / PLATELET COUNT: tissue Blood; for ALANINE AMINOTRANSFERASE / ALBUMIN / ALKALINE PHOSPHATASE / ASPARTATE AMINOTRANSFERASE / BLOOD UREA NITROGEN / CARBON DIOXIDE / CHLORIDE / CHOLESTEROL / CREATINE PHOSPHOKINASE / CREATININE / GLUCOSE / LACTATE DEHYDROGENASE / LIPASE / PHOSPHORUS / POTASSIUM / SODIUM / TOTAL BILIRUBIN / TOTAL PROTEIN / URIC ACID: tissue Plasma
[1] = 0 mg/kg, 72 h, dose level Control, time 3 day
[2] = 0 mg/kg, 120 h, dose level Control, time 5 day
[3] = 3 mg/kg, 72 h, dose level Low, time 3 day

## Cc1cccc(Nc2ccncc2S(=O)(=O)NC(=O)NC(C)C)c1 [TORSEMIDE]
[1]
  ABSOLUTE BASOPHIL: 0 CELLS/uL
  ABSOLUTE EOSINOPHIL: 41.83 CELLS/uL
  ABSOLUTE LYMPHOCYTE: 8545.5 CELLS/uL
  ABSOLUTE MONOCYTE: 240 CELLS/uL
  ABSOLUTE SEGMENTED NEUTROPHIL: 906 CELLS/uL
  BASOPHIL: 0%
  EOSINOPHIL: 0.33%
  ERYTHROCYTE COUNT: 5.6 x10E6/uL
  HEMATOCRIT: 35.4%
  HEMOGLOBIN: 13.42 G/DL
  LEUKOCYTE COUNT: 9.73 x10E3/uL
  LYMPHOCYTE: 87.83%
  MEAN CORPUSCULAR HEMOGLOBIN: 23.98 pg
  MEAN CORPUSCULAR HEMOGLOBIN CONCENTRATION: 37.92 G/DL
  MEAN CORPUSCULAR VOLUME: 63.3 fL
  MONOCYTE: 2.5%
  NEUTROPHIL: 9.33%
  NUCLEATED RED BLOOD CELLS: 0 /100WBC
  PLATELET COUNT: 1032 x10E3/uL
  ALANINE AMINOTRANSFERASE: 72.83 u/L
  ALBUMIN: 4 G/DL
  ALKALINE PHOSPHATASE: 322.83 u/L
  ASPARTATE AMINOTRANSFERASE: 102.67 u/L
  BLOOD UREA NITROGEN: 12 mg/dL
  CARBON DIOXIDE: 34.33 mmol/L
  CHLORIDE: 97.67 MEQ/L
  CHOLESTEROL: 82.5 mg/dL
  CREATINE PHOSPHOKINASE: 410.33 u/L
  CREATININE: 0.18 mg/dL
  GLUCOSE: 164.5 mg/dL
  LACTATE DEHYDROGENASE: 119.5 u/L
  LIPASE: 11.83 u/L
  PHOSPHORUS: 9.52 mg/dL
  POTASSIUM: 5.56 MEQ/L
  SODIUM: 142.48 MEQ/L
  TOTAL BILIRUBIN: 0.18 mg/dL
  TOTAL PROTEIN: 5.77 G/DL
  URIC ACID: 0.48 mg/dL
[2]
  ABSOLUTE BASOPHIL: 0 CELLS/uL
  ABSOLUTE EOSINOPHIL: 0 CELLS/uL
  ABSOLUTE LYMPHOCYTE: 9065 CELLS/uL
  ABSOLUTE MONOCYTE: 341.33 CELLS/uL
  ABSOLUTE SEGMENTED NEUTROPHIL: 527 CELLS/uL
  BASOPHIL: 0%
  EOSINOPHIL: 0%
  ERYTHROCYTE COUNT: 5.25 x10E6/uL
  HEMATOCRIT: 34.08%
  HEMOGLOBIN: 13.5 G/DL
  LEUKOCYTE COUNT: 9.93 x10E3/uL
  LYMPHOCYTE: 91.17%
  MEAN CORPUSCULAR HEMOGLOBIN: 25.7 pg
  MEAN CORPUSCULAR HEMOGLOBIN CONCENTRATION: 39.62 G/DL
  MEAN CORPUSCULAR VOLUME: 64.93 fL
  MONOCYTE: 3.33%
  NEUTROPHIL: 5.5%
  NUCLEATED RED BLOOD CELLS: 0 /100WBC
  PLATELET COUNT: 1077.5 x10E3/uL
  ALANINE AMINOTRANSFERASE: 57.83 u/L
  ALBUMIN: 4.07 G/DL
  ALKALINE PHOSPHATASE: 319.17 u/L
  ASPARTATE AMINOTRANSFERASE: 83.33 u/L
  BLOOD UREA NITROGEN: 13.67 mg/dL
  CARBON DIOXIDE: 30.83 mmol/L
  CHLORIDE: 98.33 MEQ/L
  CHOLESTEROL: 64.83 mg/dL
  CREATINE PHOSPHOKINASE: 263.67 u/L
  CREATININE: 0.2 mg/dL
  GLUCOSE: 182.83 mg/dL
  LACTATE DEHYDROGENASE: 124 u/L
  LIPASE: 10.5 u/L
  PHOSPHORUS: 10 mg/dL
  POTASSIUM: 5.78 MEQ/L
  SODIUM: 142.48 MEQ/L
  TOTAL BILIRUBIN: 0.2 mg/dL
  TOTAL PROTEIN: 6 G/DL
  URIC ACID: 0.7 mg/dL
[3]
  ABSOLUTE BASOPHIL: 0 CELLS/uL
  ABSOLUTE EOSINOPHIL: 53.33 CELLS/uL
  ABSOLUTE LYMPHOCYTE: 14854 CELLS/uL
  ABSOLUTE MONOCYTE: 155 CELLS/uL
  ABSOLUTE SEGMENTED NEUTROPHIL: 1071 CELLS/uL
  BASOPHIL: 0%
  EOSINOPHIL: 0.33%
  ERYTHROCYTE COUNT: 5.34 x10E6/uL
  HEMATOCRIT: 33.73%
  HEMOGLOBIN: 13.07 G/DL
  LEUKOCYTE COUNT: 16.13 x10E3/uL
  LYMPHOCYTE: 92%
  MEAN CORPUSCULAR HEMOGLOBIN: 24.43 pg
  MEAN CORPUSCULAR HEMOGLOBIN CONCENTRATION: 38.7 G/DL
  MEAN CORPUSCULAR VOLUME: 63.07 fL
  MONOCYTE: 1%
  NEUTROPHIL: 6.67%
  NUCLEATED RED BLOOD CELLS: 0 /100WBC
  PLATELET COUNT: 969.67 x10E3/uL
  ALANINE AMINOTRANSFERASE: 67.33 u/L
  ALBUMIN: 3.93 G/DL
  ALKALINE PHOSPHATASE: 375.67 u/L
  ASPARTATE AMINOTRANSFERASE: 84.33 u/L
  BLOOD UREA NITROGEN: 11.33 mg/dL
  CARBON DIOXIDE: 26.67 mmol/L
  CHLORIDE: 101.33 MEQ/L
  CHOLESTEROL: 69.33 mg/dL
  CREATINE PHOSPHOKINASE: 255 u/L
  CREATININE: 0.29 mg/dL
  GLUCOSE: 162 mg/dL
  LACTATE DEHYDROGENASE: 201 u/L
  LIPASE: 11.67 u/L
  PHOSPHORUS: 10.23 mg/dL
  POTASSIUM: 5.87 MEQ/L
  SODIUM: 143.83 MEQ/L
  TOTAL BILIRUBIN: 0.2 mg/dL
  TOTAL PROTEIN: 5.6 G/DL
  URIC ACID: 0.93 mg/dL
